According to patent publication US20090324513A1, “Process for Producing Chlorinated Sucrose” (Pharmed Medicare Private Limited, priority 2004, published 2009):
Where “and” joins values, the source holds several entries; their conditions need not be identical. Identical values can stand only once.

Tests used:
[1] = Particle size evaluated in Microtrac-X100 equipment; type: physicochemical; conditions: for Particle size: other batches, ethyl acetate crystallization
Protocol: The particle size was evaluated in Microtrac—X100 equipment.

[2] = Solubility test of product batch; type: physicochemical; conditions: result against specification: Soluble in ethanol and water. Slightly soluble in ethyl acetate

## OC[C@H]1O[C@H](O[C@]2(CCl)O[C@H](CCl)[C@@H](O)[C@@H]2O)[C@H](O)[C@@H](O)[C@H]1Cl [PRO 05]
[1]; 90% of particles
  Particle size: 90% ≦ 9.183 microns

## OC[C@H]1O[C@@H](O[C@]2(CCl)O[C@H](CCl)[C@@H](O)[C@@H]2O)[C@H](O)[C@@H](O)[C@H]1Cl [conventional crystallization batch, 1′,6′-Dichloro-1′,6′-Dideoxy-â-D-Fructo-Furanosyl-4-Chloro-4-Deoxy-â-D-Galactopyranoside]
[1]; 10% of particles
  individual crystal particle size at percentage: 0.956 microns
[1]; 20% of particles
  individual crystal particle size at percentage: 1.541 microns
[1]; 30% of particles
  individual crystal particle size at percentage: 2.093 microns
[1]; 40% of particles
  individual crystal particle size at percentage: 2.605 microns
[1]; 50% of particles
  individual crystal particle size at percentage: 3.274 microns
[1]; 60% of particles
  individual crystal particle size at percentage: 4.236 microns
[1]; 70% of particles
  individual crystal particle size at percentage: 5.311 microns
[1]; 80% of particles
  individual crystal particle size at percentage: 6.615 microns
[1]; 90% of particles, listed as crystallized product
  individual crystal particle size at percentage: below 9.185 microns and 9.185 microns
[1]; 95% of particles
  individual crystal particle size at percentage: 11.51 microns
[2]
  Solubility: Complies

## OC[C@H]1O[C@H](O[C@]2(CCl)O[C@H](CCl)[C@@H](O)[C@@H]2O)[C@H](O)[C@@H](O)[C@H]1Cl [PP 03]
[1]; 90% of particles
  Particle size: 90% ≦ 9.165 microns

## OC[C@H]1O[C@H](O[C@]2(CCl)O[C@H](CCl)[C@@H](O)[C@@H]2O)[C@H](O)[C@@H](O)[C@H]1Cl [PP 02]
[1]; 90% of particles
  Particle size: 90% ≦ 9.125 microns

## OC[C@H]1O[C@H](O[C@]2(CCl)O[C@H](CCl)[C@@H](O)[C@@H]2O)[C@H](O)[C@@H](O)[C@H]1Cl [PRO 01]
[1]; 90% of particles
  Particle size: 90% ≦ 9.035 microns
